Molecular target: T1, PatA (Mycolicibacterium smegmatis, UniProt A0QWG5)
T1 sequence (A0QWG5 1-304): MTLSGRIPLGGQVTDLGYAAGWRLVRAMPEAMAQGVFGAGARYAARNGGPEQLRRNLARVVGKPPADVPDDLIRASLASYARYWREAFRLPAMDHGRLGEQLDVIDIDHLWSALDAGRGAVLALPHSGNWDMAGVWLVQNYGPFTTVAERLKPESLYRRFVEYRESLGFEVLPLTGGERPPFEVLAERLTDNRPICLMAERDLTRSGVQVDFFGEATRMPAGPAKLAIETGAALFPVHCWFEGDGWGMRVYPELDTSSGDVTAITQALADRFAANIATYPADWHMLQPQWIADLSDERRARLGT
Assay: isothermal titration calorimetry
Assay type: binding

## CCCCCCCCCCCCCCCCSCCNC(=O)CCNC(=O)[C@H](O)C(C)(C)COP(=O)(O)OP(=O)(O)OC[C@H]1O[C@@H](n2cnc3c(N)ncnc32)[C@H](O)[C@@H]1OP(=O)(O)O [S-C16-CoA, S-hexadecyl-CoA]
  Kd: 7.18 µM

— PMC8519569 (Science Advances, 2021)
